Data: patent US20140113904A1, “TREATMENT OF CANCER WITH TOR KINASE INHIBITORS” (SIGNAL PHARMACEUTICALS, LLC, priority 2012, published 2014)

What was measured:
Akt(T308) = test: Phospho-Akt(T308) in PC3 cell lysates, MSD; format: cell-based, human; conditions: PC3, 1 hour exposure; read-out: p-Akt(T308) IC50
Description: The direct substrate for TORC1 was 4E-BP 1(T46) and indirect downstream substrate was S6RP(S235/S236). The direct substrate for TORC2 was Akt(S473) and indirect downstream substrates measured were GSK3β(S9) and PRAS40(T246). Additionally, the phosphorylation status of Akt(T308), a phosphorylation site for PDK1 was monitored.
MSD® biomarker detection assays provide a rapid and convenient method for measuring the total and phosphorylated levels of protein targets within a single small volume sample. These assays are available in both single-plex and multiplex formats. In a single-plex assay, an antibody for a specific protein target is coated on one electrode (or spot) per well. […] MSD Read Buffer that provides the appropriate chemical environment for ECL is added and the plate is read using an MSD SECTOR™ Imager. […] The instrument measures intensity of the emitted light to afford a quantitative measure of the amount of phosphorylated Akt or S6RP present in the sample. […]
The assay plate was incubated with 150 μL of MSD Blocker A Solution for 1 hour with shaking at room temperature. […] Then 150 μL of 1×MSD Read Buffer T was added to each well. The plate was read on the SECTOR Imager plate reader. The Excel data was transferred to Activity Base and IC50 values were calculated.
All data was analyzed using XLfit from IDBS. […]

AKT (T308) = test: Phospho-AKT (T308) in PC-3 cell lysates, MSD (Compound 2); format: cell-based; conditions: Homo sapiens; PC-3, 1 hour; read-out: PDK1 AKT (T308) IC50
Protocol: The direct substrate for mTORC1 was 4E-BP1(T46) and the indirect downstream substrate was S6RP (S235/S236). The direct substrate for mTORC2 was AKT (S473) and the indirect downstream substrates measured were GSK3β(S9) and PRAS40 (T246). Additionally, the phosphorylation status of AKT (T308), a phosphorylation site for PDK1, was monitored. Concentration-response curves were plotted and IC50 values determined. Cells were plated in 96-well flat bottom plates at the required density (PC-3 cells/well) and the cells were allowed to equilibrate at 37° C., 5% CO2 overnight. […] After the incubation period, the culture media was removed carefully with an aspirator. The plate was placed on ice and 50 μL of 1× Tris Lysis Buffer was added to each well. The plate was placed on a shaker at 4° C. for 1 hour to lyse the cells. At that point, the plate was either frozen at -80° C. for later analysis or immediately assayed for phosphoproteins as described below. To monitor interassay variability, a reference standard was included in the assay for PC-3 cells and the coefficient of variation for assay of […]) was 9.3% (n=50) and for assay of p-AKT (S473) was 28.6% (n=50). The assay plate was incubated with 150 μL of MSD Blocking Buffer for 1 hour with shaking at room temperature. […] Then 150 μL of 1×MSD Read Buffer T was added to each well. The plate was read on the SECTOR Imager plate reader.

Compound | IC50 (Akt(T308)) [nM] | IC50 (AKT (T308)) [nM]
CO[C@H]1CC[C@H](N2C(=O)CNc3ncc(-c4ccc(C(C)(C)O)nc4)nc32)CC1 [Compound 1, 7-(6-(2-hydroxypropan-2-yl)pyridin-3-yl)-1-((1r,4r)-4-methoxycyclohexyl)-3,4-dihydropyrazino-[2,3-b]pyrazin-2(1H)-one] | 130 | 
CCN1C(=O)CNc2ncc(-c3ccc(-c4nc[nH]n4)nc3C)nc21 [Compound 2, 1-ethyl-7-(2-methyl-6-(1H-1,2,4-triazol-3-yl)pyridin-3-yl)-3,4-dihydropyrazino[2,3-b]pyrazin-2(1H)-one] |  | 48
